Reference: PubChem BioAssay (NCI)
Values joined by “and” are separate entries in the source; they are usually repeats but may differ in a detail not shown here. Equal entries are not always repeated.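 Compound exposure: 48 hours, 5 concentrations, 96-well plates. Abbreviation: GI50, concentration required for 50% inhibition of growth. Definition used: TGI = concentration required for complete inhibition of growth.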

Columns and labels:
Experiment in all cases: NCI anticancer screen, dose series, 48 h
SK-MEL-5 melanoma = test system: SK-MEL-5 melanoma
T-47D breast = test system: T-47D breast
MALME-3M melanoma = test system: MALME-3M melanoma
OVCAR-3 ovarian = test system: OVCAR-3 ovarian
UACC-62 melanoma = test system: UACC-62 melanoma
MDA-N = test system: MDA-N
HCT-15 colon = test system: HCT-15 colon
NCI-H226 lung = test system: NCI-H226 lung
SN12C renal = test system: SN12C renal
MOLT-4 leukemia = test system: MOLT-4 leukemia
NCI-H23 lung = test system: NCI-H23 lung
ACHN renal = test system: ACHN renal
OVCAR-4 ovarian = test system: OVCAR-4 ovarian
SF-295 CNS = test system: SF-295 CNS
EKVX NSCLC = test system: EKVX NSCLC
CAKI-1 renal = test system: CAKI-1 renal
COLO 205 colon = test system: COLO 205 colon
MDA-MB-231 breast = test system: MDA-MB-231 breast
UACC-257 melanoma = test system: UACC-257 melanoma

Row | Structure (SMILES) | TGI (SK-MEL-5 melanoma) | TGI (T-47D breast) | TGI (MALME-3M melanoma) | TGI (OVCAR-3 ovarian) | TGI (UACC-62 melanoma) | TGI (MDA-N) | TGI (HCT-15 colon) | TGI (NCI-H226 lung) | TGI (SN12C renal) | TGI (MOLT-4 leukemia) | TGI (NCI-H23 lung) | TGI (ACHN renal) | TGI (OVCAR-4 ovarian) | TGI (SF-295 CNS) | TGI (EKVX NSCLC) | TGI (CAKI-1 renal) | TGI (COLO 205 colon) | TGI (MDA-MB-231 breast) | TGI (UACC-257 melanoma) | GI50 (OVCAR-4 ovarian)
1 | Nc1nc(Cl)cc(NCC2(CO)CCCC2)n1 | > 100 µM | > 100 µM | > 100 µM | > 100 µM | > 100 µM | > 100 µM | > 100 µM | > 100 µM | > 100 µM | > 100 µM | > 100 µM | > 100 µM | > 100 µM | > 100 µM | > 100 µM | > 100 µM | > 100 µM | > 100 µM | > 100 µM | 
2 | COc1ccc2c(c1)CCN1CCc3ccccc3CC21 (configuration not stated) | 30.2 µM | > 100 µM | > 100 µM | > 100 µM | > 100 µM | > 100 µM | > 100 µM | 83.5 µM | > 100 µM | > 100 µM | > 100 µM | > 100 µM | > 100 µM | 56.1 µM | > 100 µM | > 100 µM | 46.1 µM | > 100 µM | > 100 µM | 
3 | COc1ccc(NS(=O)(=O)c2ccc(NC(NC(=O)CC(C)C)(C(F)(F)F)C(F)(F)F)cc2)nn1 | > 100 µM | > 100 µM | > 100 µM | > 100 µM | > 100 µM | > 100 µM | > 100 µM | > 100 µM | > 100 µM | > 100 µM | > 100 µM | > 100 µM | > 100 µM | > 100 µM | > 100 µM | > 100 µM | > 100 µM | > 100 µM | > 100 µM | 
4 | C=CCOc1ccc(C2C(C(=O)OCC)C(=O)CC(C)(O)C2C(=O)OCC)cc1OC (configuration not stated) | > 100 µM | > 100 µM | > 100 µM | > 100 µM | > 100 µM | > 100 µM | > 100 µM | > 100 µM | > 100 µM | > 100 µM | > 100 µM | > 100 µM | > 100 µM | > 100 µM | > 100 µM | > 100 µM | > 100 µM | > 100 µM | > 100 µM | 
5 | CN(C)CCOC1(Cc2ccc(F)cc2)CCC(C(C)(C)C)CC1 (configuration not stated) | 3.42 µM and 5.03 µM | 17.1 µM and 13.7 µM | 7.95 µM and 10.6 µM | 23.2 µM and 28.1 µM | 15.8 µM and 17 µM | 17.3 µM and 10.5 µM | 21.9 µM and 19.7 µM | 27.5 µM and 26.8 µM | 25 µM and 27.5 µM | 8.88 µM and 12.3 µM | 27.5 µM and 24.8 µM | 23.5 µM and 25.7 µM | 15 µM and 22.5 µM | 11.9 µM and 13.1 µM | 27.4 µM and 32.5 µM | 19.4 µM and 21 µM | 4.7 µM and 5.66 µM | 23.8 µM and 22.9 µM | 13.4 µM and 12.1 µM | 4.33 µM and 9.3 µM
6 | CSc1cnc2ccccc2c1SC1CN(Cc2ccccc2)c2ccccc2C1=O (configuration not stated) | > 100 µM | > 100 µM | > 100 µM | > 100 µM | > 100 µM | > 100 µM | > 100 µM | > 100 µM | > 100 µM | > 100 µM | > 100 µM | > 100 µM | > 100 µM | > 100 µM | > 100 µM | > 100 µM | > 100 µM | > 100 µM | > 100 µM | 
7 | N#Cc1c(Cl)cc(Cl)n2c1nc1ccccc12 | 32.7 µM | 31.8 µM | 7.36 µM | 15.6 µM | 29.8 µM | 26.3 µM | 12.3 µM | 33.8 µM | 42.1 µM | > 28.8 µM | 39.9 µM | 6.65 µM | 34 µM | 32.4 µM | 67.6 µM | 7.67 µM | 21.2 µM | 14.2 µM | 25.1 µM | 
8 | Cc1ccc2c(c1)C(=O)C1(C2)Cc2cccc(C)c2C1=O (configuration not stated) | > 100 µM | > 100 µM | > 100 µM | > 100 µM | > 100 µM | > 100 µM | > 100 µM | > 100 µM | > 100 µM | > 100 µM | > 100 µM | > 100 µM | > 100 µM | > 100 µM | > 100 µM | 32.4 µM | > 100 µM | > 100 µM | > 100 µM | 
9 | CC(C)(C)OC(=O)NCCCNC1(c2cc3ccccc3s2)CCCCC1 | 27.3 µM | 39.7 µM | 30.9 µM | 27.5 µM | 31.4 µM | 28.8 µM | 29.5 µM | 46.1 µM | 30.5 µM | 28.4 µM | 26.4 µM | 33.6 µM | 29.5 µM | 28.4 µM | 28.6 µM | 26.8 µM | 27.8 µM | 40.1 µM | 30.8 µM | 
10 | CC(=O)O[C@H]1CC[C@@]2(C)C(=CC[C@H]3[C@@H]4C[C@H](N5CCOCC5)[C@H](OC(C)=O)[C@@]4(C)CC[C@@H]32)C1 | > 100 µM | > 100 µM | > 100 µM | > 100 µM | > 100 µM | > 100 µM | > 100 µM | > 100 µM | > 100 µM | > 100 µM | > 100 µM | > 100 µM | > 100 µM | > 100 µM | > 100 µM | > 100 µM | > 100 µM | > 100 µM | > 100 µM | 
11 | N#CC1=C(N)N(c2ccccc2)C(c2ccccc2)C1(C#N)C#N (configuration not stated) | 26.9 µM | 24.4 µM | 35.6 µM | 34.6 µM | 45.7 µM | 41 µM | 51.1 µM | 36.2 µM | 36.6 µM | 31.7 µM | 44.8 µM | 40.7 µM | 51.1 µM | 61.1 µM | 43.8 µM | > 100 µM | 36.1 µM | 29.8 µM | 34.9 µM | 
12 | COc1nc2nccnc2c(=O)n1C | > 10 µM | > 10 µM | > 10 µM | > 10 µM | > 10 µM | > 10 µM | > 10 µM | > 10 µM | > 10 µM | > 10 µM | > 10 µM | > 10 µM | > 10 µM | > 10 µM | > 10 µM | > 10 µM | > 10 µM | > 10 µM | > 10 µM | 
13 | O=C1c2cccnc2-c2nccc3c2c1nc1cc(Br)ccc13 | 0.263 µM | 0.848 µM | 0.374 µM | 0.2 µM | 0.373 µM | 0.732 µM | 0.25 µM | 0.855 µM | 0.412 µM | 0.854 µM | 0.313 µM | 0.609 µM | 0.563 µM | 0.72 µM | 2.52 µM | 0.591 µM | 2.12 µM | 0.876 µM | 0.837 µM | 
14 | CC12CCC(O)CC1CCC1C2CCC2(C)C(C(=O)CC(O)C(F)(F)F)CCC12 (configuration not stated) | > 100 µM | > 100 µM | > 100 µM | > 90.9 µM | > 100 µM | > 100 µM | > 100 µM | > 100 µM | > 100 µM | 43.6 µM | > 100 µM | > 100 µM | > 100 µM | 26.7 µM | 98.9 µM | > 62.3 µM | 33.1 µM | 98.2 µM | > 91.6 µM | 
15 | C[N+]12CCCCC1C(CN1C(=O)Cc3c4ccccc4c(c4ccccc34)CC1=O)CCC2 (configuration not stated) | > 100 µM | > 100 µM | > 100 µM | > 100 µM | > 100 µM | > 100 µM | > 100 µM | > 100 µM | > 100 µM | > 100 µM | > 100 µM | > 100 µM | > 100 µM | > 100 µM | > 100 µM | > 100 µM | > 100 µM | > 100 µM | > 100 µM | 
16 | NC(CCC(=O)NC(CSCC1C(=O)Nc2ccccc21)C(=O)NCC(=O)O)C(=O)O (configuration not stated) | > 44.8 µM | > 23.3 µM | 20 µM | 11.2 µM | 23.6 µM | 16.7 µM | 11 µM | 21.9 µM | 13.9 µM | 12.8 µM | 11.3 µM | 20 µM | > 22.2 µM | > 45.6 µM | 31.2 µM | 9.95 µM | 10.5 µM | 18.9 µM | 19.5 µM | 
17 | CC(C)NC(=O)OCCN=c1c2ccccc2ccc2ccccc12 | 35.8 µM | 67.6 µM | > 100 µM | 95.6 µM | > 100 µM | > 100 µM | > 100 µM | > 100 µM | > 100 µM | 71.2 µM | > 100 µM | > 100 µM | > 100 µM | > 100 µM | > 100 µM | > 100 µM | > 100 µM | > 100 µM | > 100 µM | 
18 | CCN1CCC(O)(/C=C/c2ccc(C)cc2C)C(C(=O)/C=C/c2ccc(C)cc2C)C1 (configuration not stated) | 9.23 µM | 8.01 µM | 11.4 µM | 7.84 µM | 11 µM | 6.26 µM | 4.14 µM | 7.79 µM | 7.04 µM | 5.08 µM | 7.86 µM | 3.47 µM | 7.99 µM | 4.94 µM | > 26 µM | 9.85 µM | 4.05 µM | 4.32 µM | 11.5 µM | 
19 | CC(=O)[C@@]1(O)CC[C@H]2[C@@H]3C[C@H](C)C4=CC(=O)C=C[C@]4(C)[C@@]3(F)[C@@H](O)C[C@@]21C | > 100 µM | > 100 µM | > 100 µM | > 100 µM | > 100 µM | > 100 µM | > 100 µM | > 100 µM | > 100 µM | > 100 µM | > 100 µM | > 100 µM | > 100 µM | > 100 µM | > 100 µM | > 100 µM | > 100 µM | > 100 µM | > 100 µM | 
